The values that follow come from ChEMBL document CHEMBL1157782, “Anti-microtubule 'plinabulin' chemical probe KPU-244-B3 labeled both alpha- and beta-tubulin” (Bioorg Med Chem, 2010).

Each structure is given as a SMILES string. Calls of active or inactive are those of the source. The rule behind the calls is not given here. Square brackets hold non-standard residues; d marks the D form. Peptide text beside a SMILES is read from it. * marks the point of attachment. Biotin = O=C1N[C@H]2[C@H](CS[C@H]2CCCCC(=O)*)N1; Ahx = NCCCCCC(=O)O

The test system of assay [1] is HT-29. As to the kind of experiment: Cytotoxicity against human HT-29 cells. The format is functional, cell-based.
The target of assay [2] is T1, Tubulin (Sus scrofa) (UniProt P02554+P02550). As to the kind of experiment: Binding affinity to pig tubulin at 2 uM treated for 30 mins followed by photo-irradiation at 365 nm for 30 secs measured after 1 hr by Western blot analysis. The format is protein assay.
T1 sequence (P02550 whole entry, looked up): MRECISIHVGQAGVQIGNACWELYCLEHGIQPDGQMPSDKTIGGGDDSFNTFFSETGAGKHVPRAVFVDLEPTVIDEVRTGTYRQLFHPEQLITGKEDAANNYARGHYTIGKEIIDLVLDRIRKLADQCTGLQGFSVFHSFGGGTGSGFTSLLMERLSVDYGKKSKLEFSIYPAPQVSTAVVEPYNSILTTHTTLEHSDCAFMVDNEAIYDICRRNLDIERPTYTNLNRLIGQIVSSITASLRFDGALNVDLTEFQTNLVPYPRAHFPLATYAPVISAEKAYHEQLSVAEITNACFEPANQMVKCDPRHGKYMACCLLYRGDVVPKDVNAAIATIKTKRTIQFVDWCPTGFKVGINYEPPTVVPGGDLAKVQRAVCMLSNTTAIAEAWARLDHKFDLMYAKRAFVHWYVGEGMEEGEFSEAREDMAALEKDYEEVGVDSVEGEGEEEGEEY
T1 sequence (P02554 whole entry, looked up): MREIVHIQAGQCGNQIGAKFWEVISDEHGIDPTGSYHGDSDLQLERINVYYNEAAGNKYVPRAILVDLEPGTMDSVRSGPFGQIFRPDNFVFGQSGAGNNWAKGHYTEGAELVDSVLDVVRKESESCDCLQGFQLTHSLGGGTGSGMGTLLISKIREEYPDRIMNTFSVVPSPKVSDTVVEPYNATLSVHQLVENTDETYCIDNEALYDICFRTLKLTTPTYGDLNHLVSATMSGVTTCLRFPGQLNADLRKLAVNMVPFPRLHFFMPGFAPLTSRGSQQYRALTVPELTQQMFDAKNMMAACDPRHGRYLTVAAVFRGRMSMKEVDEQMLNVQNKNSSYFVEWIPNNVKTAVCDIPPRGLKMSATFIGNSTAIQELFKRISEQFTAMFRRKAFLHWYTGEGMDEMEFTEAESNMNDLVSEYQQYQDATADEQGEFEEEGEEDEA
For assay [3], the target named is Tubulin (Sus scrofa, UniProt P02554+P02550). As to the kind of experiment: Binding affinity to pig tubulin after 1 hr by fluorescence quenching analysis. The format is protein assay.
Assay [4] has as its target T1, Tubulin (Sus scrofa). The experiment in a line: Binding affinity to pig tubulin assessed as irradiation-time-dependent labeling at 2 uM treated for 30 mins followed by photo-irradiation at 365 nm by CBB staining-based SDS-PAGE. It is filed as protein assay. Conditions: TDE = time-dependent effect.
Assay [5] deals with T1, Tubulin (Sus scrofa). As to the kind of experiment: Binding affinity to pig tubulin at 2 uM treated for 30 mins followed by photo-irradiation at 365 nm for 30 secs measured after 1 hr by Western blot analysis in presence of 100 equivalents of colchicine. The format is protein assay.
Assay [6] has as its target T1, Tubulin (Sus scrofa). As to the kind of experiment: Binding affinity to pig tubulin at 2 uM treated for 30 mins followed by photo-irradiation at 365 nm for 30 secs measured after 1 hr by Western blot analysis in presence of 5-100 equivalents of biotin. It is filed as protein assay. For orientation: Immunoblotting shows a protein as a band on a membrane.
Assay [7] deals with T1, Tubulin (Sus scrofa). As to the kind of experiment: Binding affinity to pig tubulin at 2 uM treated for 30 mins followed by photo-irradiation at 365 nm for 30 secs measured after 1 hr by CBB staining-based SDS-PAGE. It is filed as protein assay.
The target of assay [8] is T1, Tubulin (Sus scrofa). The experiment in a line: Binding affinity to pig tubulin at 2 uM treated for 30 mins followed by photo-irradiation at 365 nm for 30 secs measured after 1 hr by Western blot analysis in presence of increasing concentration of plinabulin. It is filed as protein assay.
The subject of assay [9] is HT-1080. The experiment in a line: Binding affinity to alpha-tubulin in human HT1080 cells after overnight incubation by SDS-PAGE. The format is cell-based.
The subject of assay [10] is HT-1080. As to the kind of experiment: Binding affinity to beta-tubulin in human HT1080 cells after overnight incubation by SDS-PAGE. It is filed as cell-based.
The species named for assay [11] is Sus scrofa. The experiment in a line: Binding affinity to pig alpha-tubulin at 2 uM treated for 30 mins followed by photo-irradiation at 365 nm for 30 secs measured after 1 hr by Western blot analysis.
For assay [12], the species on record is Sus scrofa. The experiment in a line: Binding affinity to pig beta-tubulin at 2 uM treated for 30 mins followed by photo-irradiation at 365 nm for 30 secs measured after 1 hr by Western blot analysis.

For orientation: IC50 means the midpoint of a concentration-inhibition curve. A lower IC50 goes with greater potency in that assay. Molecule `CC(C)(C)c1ocnc1/C=c1\[nH]c(=O)/c(=C/c2cccc(C(=O)c3ccccc3)c2)[nH]c1=O` displayed an IC50 in assay [1] of 4 nM.
The Kd is the equilibrium constant for the complex coming apart. A high value points to weaker binding. Consider `CC(C)(C)c1ocnc1/C=c1\[nH]c(=O)/c(=C/c2cccc(C(=O)c3ccc(CNC(=O)CCCCCNC(=O)CCCCCNC(=O)CCCC[C@@H]4SC[C@@H]5NC(=O)N[C@@H]54)cc3)c2)[nH]c1=O` (stereo in doubt), for which, in [2], the outcome was Active. Also, the Kd in assay [3] worked out at 9740 nM.
As to `CC(C)(C)c1ocnc1/C=c1\[nH]c(=O)/c(=C/c2cccc(C(=O)c3ccc(CNC(=O)CCCCCNC(=O)CCCCCNC(=O)CCCCCNC(=O)CCCCCNC(=O)[C@H](CCCCN)NC(=O)[C@H](CCCCN)NC(=O)CCCCCNC(=O)CCCCCNC(=O)CCCC[C@@H]4SC[C@@H]5NC(=O)N[C@@H]54)cc3)c2)[nH]c1=O` (stereo in doubt), in [4], the Activity entry was “tde”. In addition, the result in assay [5] and in [8] was inactive. The result in [6], in assay [7], in [9], in [10], in assay [11] and in assay [12] was Active. In addition, the Kd in assay [3] is 25170 nM.
As to `NCCCC[C@H](NC(=O)CCCCCNC(=O)CCCCCNC(=O)CCCC[C@@H]1SC[C@@H]2NC(=O)N[C@@H]21)C(=O)N[C@@H](CCCCN)C(=O)NCCCCCC(=O)NCCCCCC(=O)NCCCCCC(=O)NCCCCCC(=O)O` ({Biotin-Ahx-Ahx}-KK[Ahx][Ahx][Ahx][Ahx]-OH), the outcome in assay [9] and in [10] was inactive.
The molecule `CC(C)(C)c1[nH]cnc1/C=c1\[nH]c(=O)/c(=C/c2ccccc2)[nH]c1=O` [PLINABULIN] gave an IC50 in assay [1] of 15 nM. The Kd in assay [3] stood at 1060 nM.
